Article PMC4335062, “Data-Driven Prediction and Design of bZIP Coiled-Coil Interactions” (PLoS Computational Biology, 2015)
Like-named read-outs stand apart in the source and are kept apart here. Blank lines part the entries; values can stand above or below the sequence they belong to. Where no end group is shown, it is not given here.

Columns and labels:
Assay in all cases: Direct-binding FRET assay
Details in all cases: read-out: Kd
ATF4 = biological target: T1, ATF4 (Homo sapiens, UniProt P18848)
T1 construct: made in house
T1 sequence (P18848 278-341 limits assumed): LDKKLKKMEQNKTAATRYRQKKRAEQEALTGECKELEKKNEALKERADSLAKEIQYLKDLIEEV
Method: (§1) The direct binding assay was performed manually in 384-well plates and is similar to a previously described assay. Wells were filled with 20 μL of 1 mM TCEP-HCl. A 4 μM stock of acceptor protein was made fresh in 1 mM TCEP-HCl, and 20 μL was titrated in 2-fold dilutions over the wells. […] The direct-binding FRET data were fit as previously described. Briefly, the Kd of the designed peptide homodimer was experimentally determined and used with previously determined target homodimer Kd values to determine the heterodimer Kd. The homodimer Kd values used for the human bZIPs were from; experiments done by […] et al. used the same protein constructs for the human bZIP proteins, the same buffer conditions, and the same assay. The fitting used a system of ordinary differential equations to describe the concentrations of homo and heterodimers formed by the donor (D) and acceptor (A) as a function of the heterodimer Kd. MATLAB was used to simulate the binding experiment for different Kd values, and the value that gave the best agreement between simulation and experiment was assigned. A minimum 15% change in the donor fluorescence upon titrating the acceptor peptide from 0 to 1000 nM was required for a fit to be attempted. If this minimum was not met, the interaction was classified as “NS” for no signal change. […] For such curves, we removed the first five points and re-fit the data.

XBP1 = biological target: T2, XBP1 (Homo sapiens, UniProt P17861)
T2 construct: made in house
T2 sequence (P17861 70-133 limits assumed): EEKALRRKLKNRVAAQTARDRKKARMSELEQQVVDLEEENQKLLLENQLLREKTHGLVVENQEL
Method: as §1

CREB1 = biological target: T3, CREB1 (Homo sapiens, UniProt P16220)
T3 construct: made in house
T3 sequence (P16220 269-327 limits assumed): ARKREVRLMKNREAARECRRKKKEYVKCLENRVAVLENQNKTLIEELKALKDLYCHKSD
Method: as §1

NFE2L3 = biological target: T4, NFE2L3 (Homo sapiens, UniProt Q9Y4A8)
T4 construct: made in house
T4 sequence (Q9Y4A8 578-641 limits assumed): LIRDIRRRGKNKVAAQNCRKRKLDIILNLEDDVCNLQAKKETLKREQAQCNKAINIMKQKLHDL
Method: as §1

ATF3 = biological target: T5, ATF3 (Homo sapiens, UniProt P18847)
T5 construct: made in house
T5 sequence (P18847 86-149 limits assumed): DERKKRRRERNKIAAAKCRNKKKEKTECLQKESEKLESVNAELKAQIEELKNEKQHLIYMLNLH
Method: as §1

MAFF = biological target: T6, MAFF (Homo sapiens, UniProt Q9ULX9)
T6 construct: made in house
T6 sequence (Q9ULX9 51-114 limits assumed): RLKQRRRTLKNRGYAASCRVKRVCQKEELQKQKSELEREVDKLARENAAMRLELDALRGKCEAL
Method: as §1

NFE2 = biological target: T7, NFE2 (Homo sapiens, UniProt Q16621)
T7 construct: made in house
T7 sequence (Q16621 266-329 limits assumed): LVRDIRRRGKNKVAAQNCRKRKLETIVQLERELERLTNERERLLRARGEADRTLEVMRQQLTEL
Method: as §1

FOS = FOS (Homo sapiens, UniProt P01100); set-up: made in house
Method: as §1

ATF6B = ATF6B (Homo sapiens, UniProt Q99941); set-up: made in house
Sequence of ATF6B (Q99941 325-388 limits assumed): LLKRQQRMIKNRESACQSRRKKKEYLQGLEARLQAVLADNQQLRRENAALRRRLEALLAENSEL
Method: as §1

JUN = JUN (Homo sapiens, UniProt P05412); set-up: made in house
Method: as §1

MAFG = MAFG (Homo sapiens, UniProt O15525); set-up: made in house
Sequence of MAFG (O15525 51-114 limits assumed): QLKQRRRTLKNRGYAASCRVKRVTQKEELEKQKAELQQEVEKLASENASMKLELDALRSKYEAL
Method: as §1

[1] = 4°C, C-terminal rhodamine design, mean or single
[2] = 4°C, N-terminal rhodamine design, mean or single
[3] = 4°C, N-terminal rhodamine design, repeat 1
[4] = 4°C, N-terminal rhodamine design, repeat 2
[5] = 23°C, C-terminal rhodamine design, mean or single
[6] = 23°C, N-terminal rhodamine design, repeat 1
[7] = 23°C, N-terminal rhodamine design, mean or single
[8] = 37°C, C-terminal rhodamine design, mean or single
[9] = 37°C, N-terminal rhodamine design, mean or single
[10] = 37°C, C-terminal rhodamine design, repeat 1
[11] = 37°C, C-terminal rhodamine design, repeat 2
[12] = 23°C, C-terminal rhodamine design, repeat 1
[13] = 23°C, C-terminal rhodamine design, repeat 2
[14] = 4°C, C-terminal fluorescein design as donor, TAMRA target titrated
[15] = 23°C, C-terminal fluorescein design as donor, TAMRA target titrated
[16] = 37°C, C-terminal fluorescein design as donor, TAMRA target titrated
[17] = 4°C, C-terminal rhodamine design, repeat 1

Kd (ATF4; [1]): 0.001 µM | Kd (ATF4; [2]): > 1 µM | Kd (ATF4; [3]): > 1 µM | Kd (ATF4; [4]): > 1 µM | Kd (ATF4; 4°C, N-terminal rhodamine design, repeat 3): > 1 µM | Kd (ATF4; [5]): 0.001 µM | Kd (ATF4; [6]): > 5 µM | Kd (ATF4; 23°C, N-terminal rhodamine design, repeat 2): > 5 µM | Kd (XBP1; [1]): > 5 µM | Kd (XBP1; [2]): > 5 µM | Kd (XBP1; [5]): > 1 µM | Kd (XBP1; [7]): > 5 µM | Kd (XBP1; [8]): > 1 µM | Kd (XBP1; [9]): > 5 µM | Kd (CREB1; [1]): 0.133 µM | Kd (CREB1; [2]): 0.506 µM | Kd (CREB1; [5]): 0.589 µM | Kd (CREB1; [7]): > 5 µM | Kd (CREB1; [9]): > 1 µM | Kd (NFE2L3; [1]): > 5 µM | Kd (NFE2L3; [2]): > 1 µM | Kd (NFE2L3; [5]): > 1 µM | Kd (NFE2L3; [7]): > 1 µM | Kd (NFE2L3; [8]): 0.911 µM | Kd (NFE2L3; [9]): > 1 µM | Kd (ATF3; [1]): > 5 µM | Kd (ATF3; [2]): > 1 µM | Kd (ATF3; [5]): > 5 µM | Kd (ATF3; [7]): > 1 µM | Kd (ATF3; [8]): > 1 µM | Kd (ATF3; [9]): > 1 µM | Kd (MAFF; [1]): 0.266 µM | Kd (MAFF; [3]): > 5 µM | Kd (MAFF; [5]): > 5 µM | Kd (MAFF; [6]): > 5 µM | Kd (MAFF; [8]): > 5 µM | Kd (MAFF; 37°C, N-terminal rhodamine design, repeat 1): > 5 µM | Kd (NFE2; [1]): 0.162 µM | Kd (NFE2; [2]): > 5 µM | Kd (NFE2; [5]): > 5 µM | Kd (NFE2; [7]): > 1 µM | Kd (NFE2; [8]): > 5 µM | Kd (NFE2; [9]): > 1 µM | Kd (FOS; [2]): 0.0896 µM | Kd (FOS; [7]): 0.753 µM | Kd (FOS; [10]): > 5 µM | Kd (FOS; [11]): > 5 µM | Kd (ATF6B; [2]): > 5 µM | Kd (ATF6B; [12]): > 5 µM | Kd (ATF6B; [13]): > 5 µM | Kd (ATF6B; [7]): > 5 µM | Kd (ATF6B; [10]): > 5 µM | Kd (ATF6B; [11]): > 5 µM | Kd (JUN; [1]): 0.119 µM | Kd (JUN; [2]): > 5 µM | Kd (JUN; [5]): > 5 µM | Kd (JUN; [7]): > 5 µM | Kd (JUN; [8]): > 5 µM | Kd (JUN; [9]): > 5 µM | Kd (MAFG; [1]): > 5 µM | Kd (MAFG; [5]): > 1 µM | Kd (MAFG; [7]): > 1 µM | Kd (MAFG; [8]): > 1 µM | Kd (MAFG; [9]): > 1 µM
Sequence: KRIAYLRQRIAELRNENHVLESRIQRMEKEKDALQQDRDHLEYEL [ATF5-d1]

Kd (ATF4; [14]): 0.0023 µM | Kd (ATF4; [1]): 0.001 µM | Kd (ATF4; [3]): > 5 µM | Kd (ATF4; [4]): > 5 µM | Kd (ATF4; [15]): 0.0037 µM | Kd (ATF4; [5]): 0.001 µM | Kd (ATF4; [16]): 0.01 µM | Kd (XBP1; [17]): > 1 µM | Kd (XBP1; [2]): > 1 µM | Kd (XBP1; [12]): > 1 µM | Kd (XBP1; [7]): > 1 µM | Kd (XBP1; [10]): > 1 µM | Kd (XBP1; [9]): > 1 µM | Kd (CREB1; [14]): > 5 µM | Kd (CREB1; [17]): > 1 µM | Kd (CREB1; [2]): > 5 µM | Kd (CREB1; [15]): > 1 µM | Kd (CREB1; [12]): > 1 µM | Kd (CREB1; [7]): > 5 µM | Kd (CREB1; [16]): > 1 µM | Kd (CREB1; [10]): > 5 µM | Kd (CREB1; [9]): > 1 µM | Kd (NFE2L3; [17]): > 5 µM | Kd (NFE2L3; [2]): > 1 µM | Kd (NFE2L3; [12]): > 5 µM | Kd (NFE2L3; [7]): > 1 µM | Kd (NFE2L3; [10]): > 5 µM | Kd (NFE2L3; [9]): > 1 µM | Kd (ATF3; [17]): > 1 µM | Kd (ATF3; [2]): > 1 µM | Kd (ATF3; [15]): > 1 µM | Kd (ATF3; [12]): > 1 µM | Kd (ATF3; [7]): > 1 µM | Kd (ATF3; [16]): > 1 µM | Kd (ATF3; [10]): > 1 µM | Kd (ATF3; [9]): > 1 µM | Kd (MAFF; [1]): > 5 µM | Kd (MAFF; [2]): < 0.2 µM | Kd (MAFF; [12]): > 5 µM | Kd (MAFF; [13]): < 0.2 µM | Kd (MAFF; [7]): > 1 µM | Kd (MAFF; [10]): < 0.2 µM | Kd (MAFF; [11]): < 0.2 µM | Kd (MAFF; [9]): > 1 µM | Kd (NFE2; [14]): 0.0424 µM | Kd (NFE2; [2]): > 5 µM | Kd (NFE2; [12]): 0.2 to 1 µM | Kd (NFE2; [7]): > 1 µM | Kd (NFE2; [16]): > 1 µM | Kd (NFE2; [10]): > 5 µM | Kd (NFE2; [11]): > 5 µM | Kd (NFE2; [9]): > 1 µM | Kd (FOS; [2]): 0.133 µM | Kd (FOS; [15]): > 1 µM | Kd (FOS; [12]): > 5 µM | Kd (FOS; [7]): > 1 µM | Kd (FOS; [16]): > 1 µM | Kd (FOS; [10]): > 1 µM | Kd (FOS; [9]): > 1 µM | Kd (ATF6B; [14]): > 1 µM | Kd (ATF6B; [17]): > 5 µM | Kd (ATF6B; [2]): > 1 µM | Kd (ATF6B; [15]): > 1 µM | Kd (ATF6B; [12]): > 5 µM | Kd (ATF6B; [7]): > 1 µM | Kd (ATF6B; [16]): > 1 µM | Kd (ATF6B; [10]): > 5 µM | Kd (ATF6B; [9]): > 1 µM | Kd (JUN; [14]): > 1 µM | Kd (JUN; [1]): < 0.2 µM | Kd (JUN; [2]): > 1 µM | Kd (JUN; [15]): > 1 µM | Kd (JUN; [5]): < 0.2 µM | Kd (JUN; [7]): > 5 µM | Kd (JUN; [16]): > 1 µM | Kd (JUN; [8]): 0.623 µM | Kd (JUN; [9]): > 5 µM | Kd (MAFG; [17]): > 5 µM | Kd (MAFG; [2]): > 1 µM | Kd (MAFG; [12]): > 5 µM | Kd (MAFG; [7]): > 1 µM | Kd (MAFG; [10]): 0.2 to 1 µM | Kd (MAFG; [9]): > 1 µM
Sequence: NQIKTLRTRLSKLRKDNLQLEKDIANLERKAKDLRAEKEQLEYEL [ATF4-d1]
